# Data reported in patent US12065445B2, “CDK2 inhibitors and methods of using the same” (Cedilla Therapeutics, Inc., priority 2021, dated 2024).
# System: Kuramochi cells
# Test: BrdU Cell Proliferation Assay
# Format: cell-based
# Settings: read-out: BrdU - KURAMOCHI.1: IC50
# Procedure: A BrdU assay was used as a measure of proliferation based on the DNA replication process of proliferating cells. BrdU, a pyrimidine analog, is added to the cell culture and incorporated into the DNA of proliferating cells. The presence of the BrdU analog was then measured through a colorimetric ELISA. After fixation and permeabilization of cells, peroxidase-conjugated antibody recognizing BrdU is added and allowed to incubate, followed by thorough washing to remove unbound antibody. In order to quantify the amount of bound antibody, peroxidase substrate is added and produces a color that can be measured at 450 nm.
# On day −1, Kuramochi cells (Sekisui XenoTech JCRB0098) were seeded at 2,000 cells/well in columns 2-12 of a 96 well plate (Corning, CLS3596) in 150 μL media and allowed to adhere overnight at 37 degree with 5% CO2.
# On day 0, the source plate was prepared by adding 10 mM compounds and performing 3-fold serial dilutions for a 10-point dose response of each compound. Using a multichannel pipette, 2 μL of the contents of the source plate were stamped into an intermediate plate with 500 μL of RPMI 1640 Media, GlutaMAX Supplement (Life Technologies, 61870127) in each well of a Nunc 96 DeepWell™ plate, non-treated 96 DeepWell plate, 2 mL/well, sterile, natural, 60/cs (Sigma Z717274) and mixed thoroughly. 50 μL from each well of this intermediate plate were added to 4 wells of a 96-well plate with previously seeded Kuramochi cells.
# On day 4, the plates were developed using the BrdU ELISA Cell Proliferation Assay according to manufacturer's instructions (Roche, 11647229001). Briefly, BrdU was diluted 1:100 in Gibco®, OptiMEM® and 20 μL/well was added, shaken for 10 minutes at 350 rpm, and then returned to the incubator for 1 hour. Following incubation, the medium was discarded, and the cells were fixed by adding 200 μL of Fix/Denature solution. The anti-BrdU peroxidase antibody was diluted 1:1000 in OptiMEM, added at 100 μL/well, and incubated while shaking (350 rpm) for one hour. Three washes with PBS were performed to remove any unbound antibody, followed by the addition of 100 μL of substrate solution to each well. 25 μL/well of 1M sulfuric acid solution was then added to halt the reaction, and plates were read out using an Envision spectrophotometer (Perkin Elmer) set to read 450 nm absorbance. Background absorbance values from empty wells were subtracted from all samples and then normalized to DMSO treated wells.
row,SMILES,IC50
1,CNC(=O)[C@@H](NC(=O)[C@H]1CN(C(=O)c2cnn(Cc3ccccc3)c2)CC12CN(C(=O)C1(CCOC)CC1)C2)[C@@H](C)OCc1ccccc1 [I-102B],> 10 µM
2,Cc1noc([C@H](C)NC(=O)[C@H]2CN(C(=O)c3cnn(Cc4ccccc4)c3)CC23CN(C(=O)[C@H]2CC2(C)C)C3)n1 [I-158B],> 10 µM
3,C[C@@H]1C[C@H](C)CN(C(=O)[C@@H](NC(=O)C2CN(C(=O)c3cncs3)CC23CN(C(=O)[C@H]2CC2(C)C)C3)[C@@H](C)OCC2CCCCC2)C1 (stereo partly shown) [I-172],≤ 0.5 µM
4,CC1(C)C[C@@H]1C(=O)N1CC2(CN(C(=O)c3cnn(Cc4ccccc4)c3)C[C@@H]2C(=O)N[C@H]2CCc3cc(Cl)ccc32)C1 [I-120B],> 10 µM
5,CC1(C)C[C@@H]1C(=O)N1CC2(CN(C(=O)c3cnn(Cc4ccccc4)c3)C[C@H]2C(=O)N2CCN(CC3CCCCC3)CC2)C1 [I-237],> 10 µM
6,CC1(C)C[C@@H]1C(=O)N1CC2(CN(C(=O)c3cnn(Cc4ccccc4)c3)C[C@H]2C(=O)N2CC[C@@H](OCC3CCCCC3)C2)C1 [I-235],> 10 µM
7,CNC(=O)[C@@H](NC(=O)[C@@H]1CN(C(=O)c2cnn(CC3CCN(C)CC3)c2)CC12CN(C(=O)[C@H]1CC1(C)C)C2)[C@@H](C)OCc1ccccc1 [I-23A],> 10 µM
8,CNC(=O)[C@@H](NC(=O)[C@H]1CN(C(=O)c2cnn(Cc3ccccc3)c2)CC12CN(C(=O)[C@H]1CC1(C)C)C2)[C@@H](C)OCC1CCCCCC1 [I-166B],0.5 to 5 µM
9,C[C@@H](NC(=O)[C@H]1CN(C(=O)c2cnn(Cc3ccccc3)c2)CC12CN(C(=O)[C@H]1CC1(C)C)C2)c1cccc(F)c1 [I-128B],> 10 µM
10,CNC(=O)[C@@H](NC(=O)[C@H]1CN(C(=O)c2cnn(Cc3ccc(F)cc3)c2)CC12CN(C(=O)[C@H]1CC1(C)C)C2)[C@@H](C)OCC1CCC(F)(F)CC1 [I-167],> 10 µM
11,CNC(=O)[C@H](CCCC1CCCCC1)NC(=O)[C@H]1CN(C(=O)c2cnn(Cc3ccccc3)c2)CC12CN(C(=O)[C@H]1CC1(C)C)C2 [I-155B],> 10 µM
12,CNC(=O)[C@@H](NC(=O)[C@H]1CN(C(=O)c2cnn(Cc3ccccc3)c2)CC12CN(C(=O)C1(C(F)(F)F)CC1)C2)[C@@H](C)OCc1ccccc1 [I-108B],> 10 µM
13,CC(C)O[C@H]1C[C@H](NC(=O)[C@@H]2CN(C(=O)c3cnn(Cc4ccccc4)c3)CC23CN(C(=O)[C@H]2CC2(C)C)C3)C1 [I-233],> 10 µM
14,CC1(C)C[C@@H]1C(=O)N1CC2(CN(C(=O)c3cnn(Cc4ccccc4)c3)C[C@@H]2C(=O)Nc2cccc(Cc3ccccc3)c2)C1 [I-75B],> 10 µM
15,CNC(=O)[C@@H](NC(=O)[C@@H]1CN(C(=O)c2cnn(Cc3ccccc3)c2)CC12CN(C(=O)[C@H]1CC1(C)C)C2)[C@@H](C)OCC1CCOCC1 [I-119A],> 10 µM
16,CNC(=O)[C@@H](NC(=O)C1CN(C(=O)c2cnn(Cc3ccccc3)c2)CC12CN(C(=O)C1CC1(C)C)C2)[C@@H](C)OCC1CCCCC1 (mixture of isomers) [I-12],0.5 to 5 µM
17,CNC(=O)[C@@H](NC(=O)[C@@H]1CN(C(=O)c2cnn(Cc3ccccc3)c2)CC12CN(C(=O)[C@H]1CC1(C)C)C2)[C@@H](C)OCC1CCC(F)(F)CC1 [I-202],0.5 to 5 µM
18,CNC(=O)[C@@H](NC(=O)[C@H]1CN(C(=O)c2cnn(Cc3ccccc3)c2)CC12CN(C(=O)c1ccccc1)C2)[C@@H](C)OCc1ccccc1 [I-26B],> 10 µM
19,CNC(=O)[C@@H](NC(=O)[C@H]1CN(C(=O)c2scnc2C)CC12CN(C(=O)[C@H]1CC1(C)C)C2)[C@@H](C)OCC1CCCCC1 [I-160B],> 10 µM
20,CNC(=O)[C@@H](NC(=O)[C@H]1CN(C(=O)c2n[nH]c3ccccc23)CC12CN(C(=O)[C@H]1CC1(C)C)C2)[C@@H](C)OCc1ccccc1 [I-112B],> 10 µM
21,CNC(=O)[C@@H](NC(=O)[C@@H]1CN(C(=O)c2cnn(CC3CC3)c2)CC12CN(C(=O)CC1CC1)C2)[C@@H](C)OCc1ccccc1 [I-53A],> 10 µM
22,CNC(=O)[C@@H](NC(=O)[C@H]1CN(C(=O)c2cnn(Cc3ccccc3)c2)CC12CN(C(=O)CC(F)(F)F)C2)[C@@H](C)OCc1ccccc1 [I-87B],> 10 µM
23,CNC(=O)[C@@H](NC(=O)[C@H]1CN(Cc2cnn(Cc3ccccc3)c2)CC12CN(C(=O)[C@H]1CC1(C)C)C2)[C@@H](C)OCc1ccccc1 [I-16B],> 10 µM

row,SMILES,IC50
1,CC1(C)C[C@@H]1C(=O)N1CC2(CN(C(=O)c3cnn(Cc4ccccc4)c3)C[C@@H]2C(=O)N2CCC(Cc3ccccc3)CC2)C1 [I-58B],> 10 µM
2,CNC(=O)[C@@H](NC(=O)[C@H]1CN(C(=O)c2cnn(Cc3ccccc3)c2)CC12CN(C(=O)CC1CC1)C2)[C@@H](C)OCC1CCCCC1 [I-56B],> 10 µM
3,C[C@@H](OCC1CCCCC1)[C@H](NC(=O)[C@@H]1CN(C(=O)c2cnn(Cc3ccccc3)c2)CC12CN(C(=O)[C@H]1CC1(C)C)C2)C(=O)N1CCC(CN)CC1 [I-219],0.5 to 5 µM
4,"CNC(=O)[C@@H](NC(=O)[C@@H]1CN(C(=O)c2cnn(Cc3ccccc3)c2)CC12CN(C(=O)C1(C)CC1)C2)[C@@H](C)OCc1ccccc1 [I-67A, (S)-6-(1-benzyl-1H-pyrazole-4-carbonyl)-N-((2S,3R)-3-(benzyloxy)-1-(methylamino)-1-oxobutan-2-yl)-2-(1-methylcyclopropane-1-carbonyl)-2,6-diazaspiro[3.4]octane-8-carboxamide]",> 10 µM
5,CNC(=O)[C@@H](NC(=O)[C@H]1CN(C(=O)c2cnc(COC)s2)CC12CN(C(=O)[C@H]1CC1(C)C)C2)[C@@H](C)OCC1CCCCC1 [I-145B],> 10 µM
6,COC(=O)[C@H](CO)NC(=O)[C@H]1CN(C(=O)c2cnn(Cc3ccccc3)c2)CC12CN(C(=O)[C@H]1CC1(C)C)C2 [I-209B],> 10 µM
7,COC(=O)[C@@H](CO)NC(=O)[C@H]1CN(C(=O)c2cnn(Cc3ccccc3)c2)CC12CN(C(=O)[C@H]1CC1(C)C)C2 [I-187B],> 10 µM
8,COc1cccc(CNC(=O)[C@H]2CN(C(=O)c3cnn(Cc4ccccc4)c3)CC23CN(C(=O)[C@H]2CC2(C)C)C3)n1 [I-126B],> 10 µM
9,CN(C(=O)[C@H]1CCCN(C(=O)[C@@H]2CN(C(=O)c3cnn(Cc4ccccc4)c3)CC23CN(C(=O)[C@H]2CC2(C)C)C3)C1)C1CCCCC1 [I-179],> 10 µM
10,C[C@@H](OCc1ccccc1)[C@H](NC(=O)C1CN(C(=O)c2cnn(Cc3ccccc3)c2)CC12CN(C(=O)[C@H]1CC1(C)C)C2)C(=O)N1CCCC(CO)C1 (stereo partly shown) [I-98],> 10 µM
11,CO[C@H]1COCC[C@@H]1NC(=O)[C@H]1CN(C(=O)c2cnn(Cc3ccccc3)c2)CC12CN(C(=O)[C@H]1CC1(C)C)C2 [I-131B],> 10 µM
12,CCC(CC)C(=O)N1CC2(CN(C(=O)c3cnn(Cc4ccccc4)c3)C[C@@H]2C(=O)N[C@H](C(=O)NC)[C@@H](C)OCc2ccccc2)C1 [I-74B],> 10 µM
13,CNC(=O)[C@@H](NC(=O)[C@H]1CN(S(=O)(=O)c2cnn(Cc3ccccc3)c2)CC12CN(C(=O)[C@H]1CC1(C)C)C2)[C@@H](C)OCc1ccccc1 [I-79B],> 10 µM
14,CNC(=O)[C@@H](NC(=O)[C@H]1CN(Cc2ccncc2)CC12CN(C(=O)[C@H]1CC1(C)C)C2)[C@@H](C)OCc1ccccc1 [I-55B],> 10 µM
15,CNC(=O)[C@@H](NC(=O)[C@@H]1CN(C(=O)c2cnn(CC3CCOCC3)c2)CC12CN(C(=O)[C@H]1CC1(C)C)C2)[C@@H](C)OCC1CCCCC1 [I-121A],5 to 10 µM
16,CC1(C)C[C@@H]1C(=O)N1CC2(CN(C(=O)c3cnn(Cc4ccccc4)c3)C[C@@H]2C(=O)N[C@H]2CCCN(C(=O)c3ccccc3)C2)C1 [I-83B],> 10 µM
17,CNC(=O)[C@@H](NC(=O)[C@@H]1CN(C(=O)c2ccccn2)CC12CN(C(=O)[C@H]1CC1(C)C)C2)[C@@H](C)OCc1ccccc1 [I-45A],> 10 µM
18,CNC(=O)[C@@H](NC(=O)[C@H]1CN(C(=O)c2cncs2)CC12CN(C(=O)CC1CC1)C2)[C@@H](C)OCC1CCCCC1 [I-103B],> 10 µM
19,CNC(=O)[C@@H](NC(=O)[C@H]1CN(C(=O)c2c[nH]c3ccccc23)CC12CN(C(=O)[C@H]1CC1(C)C)C2)[C@@H](C)OCc1ccccc1 [I-72B],> 10 µM
20,CNC(=O)[C@@H](NC(=O)[C@H]1CN(C(=O)c2cnn(CC3CCOCC3)c2)CC12CN(C(=O)[C@H]1CC1(C)C)C2)[C@@H](C)OCc1ccccc1 [I-95B],> 10 µM
21,CNC(=O)[C@@H](NC(=O)[C@@H]1CN(C(=O)c2cncs2)CC12CN(C(=O)CC1CC1)C2)[C@@H](C)OCC1CCCCC1 [I-103A],> 10 µM
22,C[C@@H](OCc1ccccc1)C(NC(=O)C1CN(C(=O)c2cnn(Cc3ccccc3)c2)CC12CN(C(=O)[C@H]1CC1(C)C)C2)C(=O)NCCOCCOCCO (stereo partly shown) [I-21],> 10 µM
23,CNC(=O)[C@@H](NC(=O)[C@@H]1CN(C(=O)c2cnc(C)s2)CC12CN(C(=O)[C@H]1CC1(C)C)C2)[C@@H](C)OCC1CCCCC1 [I-156A],5 to 10 µM
